From publication PMC8550792, “Evolution of kinase polypharmacology across HSP90 drug discovery” (Cell Chemical Biology, 2021)

How the values were obtained:
382 unique human kinases [1] = target: T1, 382 unique human kinases (Homo sapiens, UniProt P42345); test: biochemical; type: biochemical; conditions: mTOR/FRAP1; compound at 10 uM; duplicate values; read-out: % Enzyme Activity (relative to DMSO controls)
T1 construct: purchased Reaction Biology (HotSpot contract assay)

ABL2 = ABL2 (Homo sapiens, UniProt P42684); test: NanoBRET intracellular target engagement
382 unique human kinases [2] = target: T2, 382 unique human kinases (Homo sapiens, UniProt P00519, F317L); test: biochemical; type: biochemical; conditions: ABL1 (F317L), [ATP] 5 µM, compound 10 uM
T2 construct: purchased Reaction Biology (HotSpot contract assay)

382 unique human kinases [3] = target: T3, 382 unique human kinases (Homo sapiens, UniProt P04626); test: biochemical; type: biochemical; conditions: ERBB2/HER2, 10 uM
T3 construct: purchased Reaction Biology (HotSpot contract assay)

382 unique human kinases [4] = target: T4, 382 unique human kinases (Homo sapiens, UniProt P04626, D769Y); test: biochemical; type: biochemical; conditions: ERBB2 (D769Y), 10 uM
T4 construct: purchased Reaction Biology (HotSpot contract assay)

382 unique human kinases [5] = target: T5, 382 unique human kinases (Homo sapiens, UniProt P15056, G469A); test: biochemical; type: biochemical; conditions: BRAF (G469A), 10 uM
T5 construct: purchased Reaction Biology (HotSpot contract assay)

382 unique human kinases [6] = target: T6, 382 unique human kinases (Homo sapiens, UniProt P17948); test: biochemical; type: biochemical; conditions: FLT1/VEGFR1, [ATP] 2.5 µM, compound 10 uM
T6 construct: purchased Reaction Biology (HotSpot contract assay)

382 unique human kinases [7] = target: T7, 382 unique human kinases (Homo sapiens, UniProt Q96S53); test: biochemical; type: biochemical; conditions: TESK2, 10 uM
T7 construct: purchased Reaction Biology (HotSpot contract assay)

382 unique human kinases [8] = target: T8, 382 unique human kinases (Homo sapiens, UniProt O14578); test: biochemical; type: biochemical; conditions: STK21/CIT, 10 uM
T8 construct: purchased Reaction Biology (HotSpot contract assay)

382 unique human kinases [9] = target: T9, 382 unique human kinases (Homo sapiens, UniProt P04626, V777L); test: biochemical; type: biochemical; conditions: ERBB2 (V777L), compound at 10 uM, duplicate values
T9 construct: purchased Reaction Biology (HotSpot contract assay)

382 unique human kinases [10] = target: T10, 382 unique human kinases (Homo sapiens, UniProt P08069); test: biochemical; type: biochemical; conditions: IGF1R, compound at 10 uM, duplicate values
T10 construct: purchased Reaction Biology (HotSpot contract assay)

382 unique human kinases [11] = target: T11, 382 unique human kinases (Homo sapiens, UniProt P10721, D816I); test: biochemical; type: biochemical; conditions: c-Kit (D816I), 10 uM
T11 construct: purchased Reaction Biology (HotSpot contract assay)

382 unique human kinases [12] = target: T12, 382 unique human kinases (Homo sapiens, UniProt P15056, L597V); test: biochemical; type: biochemical; conditions: BRAF (L597V), compound at 10 uM, duplicate values
T12 construct: purchased Reaction Biology (HotSpot contract assay)

382 unique human kinases [13] = target: T13, 382 unique human kinases (Homo sapiens, UniProt P57078); test: biochemical; type: biochemical; conditions: kinase RIPK4, compound 10 uM
T13 construct: purchased Reaction Biology (HotSpot contract assay)

[14] = read-out: % Enzyme Activity (relative to DMSO controls)

T5 sequence (P15056 whole entry G469A): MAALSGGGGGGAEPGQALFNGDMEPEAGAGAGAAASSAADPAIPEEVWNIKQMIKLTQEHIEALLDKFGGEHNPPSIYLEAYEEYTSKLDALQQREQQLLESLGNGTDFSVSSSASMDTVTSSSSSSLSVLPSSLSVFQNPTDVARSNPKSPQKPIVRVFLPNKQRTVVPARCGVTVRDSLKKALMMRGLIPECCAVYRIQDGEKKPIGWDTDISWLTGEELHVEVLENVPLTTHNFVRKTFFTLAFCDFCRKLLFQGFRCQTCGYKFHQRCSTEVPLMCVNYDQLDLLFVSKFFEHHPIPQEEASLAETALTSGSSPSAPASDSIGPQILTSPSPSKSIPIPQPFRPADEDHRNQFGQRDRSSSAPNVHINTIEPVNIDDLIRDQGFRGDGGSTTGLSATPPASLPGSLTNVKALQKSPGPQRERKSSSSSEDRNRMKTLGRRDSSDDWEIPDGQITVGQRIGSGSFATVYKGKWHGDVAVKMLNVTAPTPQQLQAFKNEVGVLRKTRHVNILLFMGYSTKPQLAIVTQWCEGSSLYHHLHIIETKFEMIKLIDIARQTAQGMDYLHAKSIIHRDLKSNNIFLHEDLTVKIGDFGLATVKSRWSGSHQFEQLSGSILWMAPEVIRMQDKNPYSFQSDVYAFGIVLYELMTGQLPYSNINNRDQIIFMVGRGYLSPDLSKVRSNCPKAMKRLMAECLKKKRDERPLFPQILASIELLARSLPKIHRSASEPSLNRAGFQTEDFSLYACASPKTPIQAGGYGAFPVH
T13 sequence (P57078 whole entry): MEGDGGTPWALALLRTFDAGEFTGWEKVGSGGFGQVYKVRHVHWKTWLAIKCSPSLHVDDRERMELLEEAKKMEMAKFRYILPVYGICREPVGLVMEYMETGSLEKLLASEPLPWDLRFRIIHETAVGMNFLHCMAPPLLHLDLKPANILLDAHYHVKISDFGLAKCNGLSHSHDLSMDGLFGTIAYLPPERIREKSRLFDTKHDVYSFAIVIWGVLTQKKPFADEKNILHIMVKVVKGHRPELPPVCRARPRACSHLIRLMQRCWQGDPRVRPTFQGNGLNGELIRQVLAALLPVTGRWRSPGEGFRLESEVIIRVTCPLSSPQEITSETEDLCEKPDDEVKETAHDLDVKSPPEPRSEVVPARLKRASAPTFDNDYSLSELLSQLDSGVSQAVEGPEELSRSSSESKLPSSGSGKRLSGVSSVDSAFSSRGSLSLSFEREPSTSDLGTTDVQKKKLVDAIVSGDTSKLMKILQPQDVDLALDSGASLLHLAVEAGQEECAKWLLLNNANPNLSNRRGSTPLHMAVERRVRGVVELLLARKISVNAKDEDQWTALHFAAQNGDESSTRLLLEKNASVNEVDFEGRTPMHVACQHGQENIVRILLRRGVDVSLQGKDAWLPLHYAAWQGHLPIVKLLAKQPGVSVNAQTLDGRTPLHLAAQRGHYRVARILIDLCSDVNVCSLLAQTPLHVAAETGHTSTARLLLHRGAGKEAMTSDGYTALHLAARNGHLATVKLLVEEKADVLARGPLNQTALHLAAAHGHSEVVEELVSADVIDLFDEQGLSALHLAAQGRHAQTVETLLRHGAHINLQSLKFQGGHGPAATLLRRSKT
T6 sequence (P17948 27-1338): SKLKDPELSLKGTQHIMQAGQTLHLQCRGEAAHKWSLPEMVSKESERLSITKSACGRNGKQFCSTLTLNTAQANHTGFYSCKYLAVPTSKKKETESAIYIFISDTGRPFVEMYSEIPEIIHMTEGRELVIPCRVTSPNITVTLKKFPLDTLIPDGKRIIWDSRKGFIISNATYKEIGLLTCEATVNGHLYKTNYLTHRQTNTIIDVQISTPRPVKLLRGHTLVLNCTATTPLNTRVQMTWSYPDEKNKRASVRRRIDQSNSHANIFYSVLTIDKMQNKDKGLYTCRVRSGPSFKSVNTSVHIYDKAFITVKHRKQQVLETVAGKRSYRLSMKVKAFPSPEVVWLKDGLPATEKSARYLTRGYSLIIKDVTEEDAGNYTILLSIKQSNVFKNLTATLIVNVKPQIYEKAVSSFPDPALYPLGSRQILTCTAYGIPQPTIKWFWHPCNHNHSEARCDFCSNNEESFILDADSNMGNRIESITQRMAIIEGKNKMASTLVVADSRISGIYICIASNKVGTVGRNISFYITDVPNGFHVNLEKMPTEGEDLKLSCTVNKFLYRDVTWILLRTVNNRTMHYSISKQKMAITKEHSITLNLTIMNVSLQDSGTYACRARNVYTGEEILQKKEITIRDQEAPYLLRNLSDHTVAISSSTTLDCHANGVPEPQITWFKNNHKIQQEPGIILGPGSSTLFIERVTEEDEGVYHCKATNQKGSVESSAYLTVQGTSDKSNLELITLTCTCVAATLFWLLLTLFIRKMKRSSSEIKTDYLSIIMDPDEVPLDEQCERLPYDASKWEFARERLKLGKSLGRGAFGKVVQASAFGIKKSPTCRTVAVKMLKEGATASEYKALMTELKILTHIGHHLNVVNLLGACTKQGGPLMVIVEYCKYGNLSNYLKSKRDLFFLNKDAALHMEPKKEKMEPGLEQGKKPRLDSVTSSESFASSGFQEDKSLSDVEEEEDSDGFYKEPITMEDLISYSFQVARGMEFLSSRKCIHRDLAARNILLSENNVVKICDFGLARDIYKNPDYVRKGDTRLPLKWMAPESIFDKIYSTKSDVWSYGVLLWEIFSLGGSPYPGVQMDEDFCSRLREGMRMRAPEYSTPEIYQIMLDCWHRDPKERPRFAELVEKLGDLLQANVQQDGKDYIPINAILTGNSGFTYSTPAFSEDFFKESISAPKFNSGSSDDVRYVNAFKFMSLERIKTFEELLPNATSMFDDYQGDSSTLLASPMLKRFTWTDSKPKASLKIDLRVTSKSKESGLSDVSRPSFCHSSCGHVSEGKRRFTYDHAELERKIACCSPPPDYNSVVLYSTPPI
T10 sequence (P08069 31-1367): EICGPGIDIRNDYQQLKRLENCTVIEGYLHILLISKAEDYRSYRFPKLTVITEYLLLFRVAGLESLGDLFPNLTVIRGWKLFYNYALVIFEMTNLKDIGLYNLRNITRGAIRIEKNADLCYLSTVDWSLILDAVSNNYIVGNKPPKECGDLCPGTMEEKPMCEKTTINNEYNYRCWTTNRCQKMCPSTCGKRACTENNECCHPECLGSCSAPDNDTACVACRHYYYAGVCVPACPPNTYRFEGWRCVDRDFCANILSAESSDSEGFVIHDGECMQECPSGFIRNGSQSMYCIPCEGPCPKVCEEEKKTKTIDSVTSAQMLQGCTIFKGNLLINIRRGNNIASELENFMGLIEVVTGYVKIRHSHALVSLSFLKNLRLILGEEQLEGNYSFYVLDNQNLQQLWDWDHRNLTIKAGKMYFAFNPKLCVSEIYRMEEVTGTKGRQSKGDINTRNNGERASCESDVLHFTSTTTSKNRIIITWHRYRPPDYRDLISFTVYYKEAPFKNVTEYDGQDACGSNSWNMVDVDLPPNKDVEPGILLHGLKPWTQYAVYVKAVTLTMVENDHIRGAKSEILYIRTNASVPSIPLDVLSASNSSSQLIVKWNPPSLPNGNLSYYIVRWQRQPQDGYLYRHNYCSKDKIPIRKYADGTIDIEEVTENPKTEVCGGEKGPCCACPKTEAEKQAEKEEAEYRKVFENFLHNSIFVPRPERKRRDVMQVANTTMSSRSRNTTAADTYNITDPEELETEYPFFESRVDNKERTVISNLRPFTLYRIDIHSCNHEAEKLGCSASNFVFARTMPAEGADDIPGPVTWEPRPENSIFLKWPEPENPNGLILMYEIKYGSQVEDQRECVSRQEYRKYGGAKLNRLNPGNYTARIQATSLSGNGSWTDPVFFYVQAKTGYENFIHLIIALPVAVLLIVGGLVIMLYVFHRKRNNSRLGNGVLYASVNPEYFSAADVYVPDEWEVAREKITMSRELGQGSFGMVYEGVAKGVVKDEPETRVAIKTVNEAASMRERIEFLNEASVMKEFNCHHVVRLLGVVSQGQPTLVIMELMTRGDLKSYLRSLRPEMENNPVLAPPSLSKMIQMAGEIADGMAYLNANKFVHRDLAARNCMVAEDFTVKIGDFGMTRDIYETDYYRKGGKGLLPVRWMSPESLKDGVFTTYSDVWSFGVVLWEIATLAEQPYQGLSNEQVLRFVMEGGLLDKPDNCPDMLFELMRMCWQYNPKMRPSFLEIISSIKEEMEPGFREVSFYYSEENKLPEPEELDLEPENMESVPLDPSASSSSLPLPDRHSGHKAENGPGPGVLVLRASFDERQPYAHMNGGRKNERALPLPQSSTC
T7 sequence (Q96S53 whole entry): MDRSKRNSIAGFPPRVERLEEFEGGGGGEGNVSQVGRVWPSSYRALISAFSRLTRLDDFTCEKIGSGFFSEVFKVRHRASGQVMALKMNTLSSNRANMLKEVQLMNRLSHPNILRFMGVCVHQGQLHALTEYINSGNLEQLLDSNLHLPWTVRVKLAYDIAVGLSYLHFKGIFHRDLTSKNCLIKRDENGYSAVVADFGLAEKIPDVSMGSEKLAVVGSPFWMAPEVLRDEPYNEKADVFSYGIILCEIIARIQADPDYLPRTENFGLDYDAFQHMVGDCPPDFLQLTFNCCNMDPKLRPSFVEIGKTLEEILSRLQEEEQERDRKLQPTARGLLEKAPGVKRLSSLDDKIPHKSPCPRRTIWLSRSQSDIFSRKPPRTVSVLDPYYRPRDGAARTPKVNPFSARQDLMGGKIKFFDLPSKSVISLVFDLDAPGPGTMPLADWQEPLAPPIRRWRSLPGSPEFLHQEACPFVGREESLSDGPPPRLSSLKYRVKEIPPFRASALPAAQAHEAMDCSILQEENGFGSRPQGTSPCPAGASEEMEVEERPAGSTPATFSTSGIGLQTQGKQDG
T12 sequence (P15056 whole entry L597V): as the sequence (P15056 whole entry G469A) above, with A469G, L597V counted along it

Compound: CC(C)c1cc(-c2n[nH]c(=O)n2-c2ccc3c(ccn3C)c2)c(O)cc1O [Ganetespib (STA9090)]
- remaining activity at 10 µM (382 unique human kinases [1]): 107%

Compound: CC(C)c1cc(-c2n[nH]c(=O)n2-c2ccc3c(ccn3C)c2)c(O)cc1O [Ganetespib]
- EC50 (ABL2): 21.1 µM
- remaining activity at 100 µM (ABL2; HEK293, read-out: %Normalized Bret Response, ABL2 NanoBRET, HEK293, Drug Conc. 0.0001 M): 22.6%

Compound: CCNC(=O)c1noc(-c2cc(C(C)C)c(O)cc2O)c1-c1ccc(CN2CCOCC2)cc1 [Luminespib]
- % Enzyme Activity (relative to DMSO controls) (382 unique human kinases [2]): 5.92%
- remaining activity at 10 µM (382 unique human kinases [2]; [14]): 6.23%
- % Enzyme Activity (relative to DMSO controls) (382 unique human kinases [3]): 97.41%
- remaining activity at 10 µM (382 unique human kinases [3]; [14]): 98.2%
- % Enzyme Activity (relative to DMSO controls) (382 unique human kinases [4]): 99.76%
- remaining activity at 10 µM (382 unique human kinases [4]; [14]): 100%
- % Enzyme Activity (relative to DMSO controls) (382 unique human kinases [5]): 98.83%
- remaining activity at 10 µM (382 unique human kinases [5]; [14]): 99.7%
- % Enzyme Activity (relative to DMSO controls) (382 unique human kinases [6]): 90.88%
- remaining activity at 10 µM (382 unique human kinases [6]; [14]): 91.3%
- % Enzyme Activity (relative to DMSO controls) (382 unique human kinases [7]): 98.62%
- remaining activity at 10 µM (382 unique human kinases [7]; [14]): 100%

Compound: CCNC(=O)c1noc(-c2cc(C(C)C)c(O)cc2O)c1-c1ccc(CN2CCOCC2)cc1 [Luminespib (AUY-922)]
- % Enzyme Activity (relative to DMSO controls) (382 unique human kinases [8]): 76.27%
- remaining activity at 10 µM (382 unique human kinases [8]; [14]): 78.4%
- % Enzyme Activity (relative to DMSO controls) (382 unique human kinases [9]): 104.18%
- remaining activity at 10 µM (382 unique human kinases [9]; [14]): 105%
- % Enzyme Activity (relative to DMSO controls) (382 unique human kinases [10]): 104.49%
- remaining activity at 10 µM (382 unique human kinases [10]; [14]): 106%
- % Enzyme Activity (relative to DMSO controls) (382 unique human kinases [11]): 72.16%
- remaining activity at 10 µM (382 unique human kinases [11]; [14]): 73.3%
- % Enzyme Activity (relative to DMSO controls) (382 unique human kinases [12]): 104.65%
- remaining activity at 10 µM (382 unique human kinases [12]; [14]): 107%
- % Enzyme Activity (relative to DMSO controls) (382 unique human kinases [13]): 85.29%
- remaining activity at 10 µM (382 unique human kinases [13]; [14]): 87.2%
